Calls of active or inactive are those of the source. The rule behind the calls is not given here.
Tests used:
[1] = tested on: Exportin-1 (Homo sapiens), O14980 [C528S]; test: Inhibition of human CRM1-C528S mutant assessed as C528 conjugation at 20 uM incubated for 2 hrs before binding by coomassie blue staining based pull-down assay
[2] = molecular target: Exportin-1 (Homo sapiens) (UniProt O14980); test: Inhibition of human CRM1-WT assessed as C528 conjugation at 1 uM incubated for 2 hrs before binding by coomassie blue staining based pull-down assay
Saccharomyces cerevisiae [3] = test: Inhibition of Yeast GST-tagged/TEV cleavage site fused CRM1 C152/C539/D1034A triple mutant expressed in Escherichia coli BL21 (DE3) assessed as decrease in NES binding at 60 uM measured after 2 hrs by coomassie blue staining based pull-down assay
Saccharomyces cerevisiae [4] = test: Inhibition of Yeast GST-tagged/TEV cleavage site fused CRM1 C152/C539 double mutant expressed in Escherichia coli BL21 (DE3) assessed as C1022 conjugation mediated NES inhibition at 60 uM measured after 2 hrs by coomassie blue staining based pull-down assay
[5] = molecular target: Exportin-1 (Homo sapiens) (UniProt O14980); test: Inhibition of human wild type CRM1 assessed as C528 conjugation at 20 uM incubated for 2 hrs before binding by coomassie blue staining based pull-down assay

Chain of Exportin-1 (Homo sapiens) (O14980 whole entry, the tested form may be a part): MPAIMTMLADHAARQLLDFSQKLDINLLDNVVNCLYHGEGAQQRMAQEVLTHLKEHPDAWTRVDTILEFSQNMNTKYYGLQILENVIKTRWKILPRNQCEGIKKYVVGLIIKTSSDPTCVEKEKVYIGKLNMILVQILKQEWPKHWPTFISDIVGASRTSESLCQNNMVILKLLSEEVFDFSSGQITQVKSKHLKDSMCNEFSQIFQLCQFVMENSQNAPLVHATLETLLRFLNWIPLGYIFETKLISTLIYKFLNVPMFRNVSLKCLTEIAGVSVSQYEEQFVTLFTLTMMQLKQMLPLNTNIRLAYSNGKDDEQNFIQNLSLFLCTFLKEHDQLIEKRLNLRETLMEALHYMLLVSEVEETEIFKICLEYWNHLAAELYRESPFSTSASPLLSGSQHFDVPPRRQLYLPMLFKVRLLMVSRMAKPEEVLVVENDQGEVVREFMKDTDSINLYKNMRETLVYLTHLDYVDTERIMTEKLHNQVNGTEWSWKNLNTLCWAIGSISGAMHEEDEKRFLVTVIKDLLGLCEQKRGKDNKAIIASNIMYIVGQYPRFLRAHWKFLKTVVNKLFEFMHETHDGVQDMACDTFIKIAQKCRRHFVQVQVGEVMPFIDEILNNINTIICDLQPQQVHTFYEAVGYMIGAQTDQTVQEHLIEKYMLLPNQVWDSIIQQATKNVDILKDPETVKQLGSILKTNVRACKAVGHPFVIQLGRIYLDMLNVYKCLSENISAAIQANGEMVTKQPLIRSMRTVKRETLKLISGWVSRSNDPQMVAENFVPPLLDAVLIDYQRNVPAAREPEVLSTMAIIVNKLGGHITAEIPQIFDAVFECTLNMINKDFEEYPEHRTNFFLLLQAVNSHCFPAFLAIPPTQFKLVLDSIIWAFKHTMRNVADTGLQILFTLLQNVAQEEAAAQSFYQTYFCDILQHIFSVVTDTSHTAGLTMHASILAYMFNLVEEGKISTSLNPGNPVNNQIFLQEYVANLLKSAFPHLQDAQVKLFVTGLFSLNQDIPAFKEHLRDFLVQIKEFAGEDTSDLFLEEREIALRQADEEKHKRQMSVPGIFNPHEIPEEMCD
Chain of Exportin-1 (Homo sapiens), O14980 [C528S] (O14980 whole entry C528S): as the sequence (O14980 whole entry, the tested form may be a part) above, with C528S counted along it

| inhibition [1] | inhibition [2] | inhibition (Saccharomyces cerevisiae [4]) | inhibition [5] | Compound | inhibition (Saccharomyces cerevisiae [3]) |
| --- | --- | --- | --- | --- | --- |
| Active | inactive | Active | Active | C=C1C(=O)[C@]23[C@H](O)[C@H]1CC[C@H]2[C@@]12CO[C@]3(O)[C@@H](O)[C@@H]1C(C)(C)CC[C@@H]2O | Active |
| Active |  |  | Active | O=C(/C=C\n1cnc(-c2cc(C(F)(F)F)cc(C(F)(F)F)c2)n1)NNc1cnccn1 |  |

| Compound | inhibition [1] | inhibition [2] | inhibition (Saccharomyces cerevisiae [4]) | inhibition [5] | inhibition (Saccharomyces cerevisiae [3]) |
| --- | --- | --- | --- | --- | --- |
| CC1=CC(=O)c2c(O)cccc2C1=O | Active |  |  | Active | Active |

From ChEMBL document CHEMBL4842311, “Novel Mechanistic Observations and NES-Binding Groove Features Revealed by the CRM1 Inhibitors Plumbagin and Oridonin” (J Nat Prod, 2021)
